Data on five compounds can be found in paper PMC5374420, “In Search of Small Molecule Inhibitors Targeting the Flexible CK2 Subunit Interface” (Pharmaceuticals, 2017).

Where a SMILES comes first, the peptide text is derived from it. Bridges are numbered along the chain shown (N, C = ends). The star is where a group is joined. Cbz = O=C(OCc1ccccc1)*; CH2F = FC*

Experiment [1] deals with p21 Thr145 phosphorylation, survivin expression, AKT activation. The experiment is described as follows: Western blot of intracellular events (AKT, phospho-p21 Thr145, survivin). Type of experiment: cell-based. As to conditions: 786-O cells, 12 h, increasing concentrations of CX-4945 (Figure S1). The method, then: This was confirmed using the LIVE&DEAD^TM cell viability assay that provides a visual readout of cell integrity (Figure 8A lower panel). This cellular effect was also analyzed after treatment of WT or CK2β-depleted MCF-10A cells with increasing concentrations of TAT-Pc 13. TAT-Pc 13 caused a cell death in both cell types, which was already detectable at a concentration of 25 µM and became massive at 50–60 µM (Figure 8B). […] In order to investigate the intracellular events induced by TAT-Pc 13, MCF-10A cells were incubated with increasing concentrations of TAT-Pc 13 and analyzed by Western blot.
Figure 8 Cellular effects of TAT-Pc 13. (A) MCF-10A cells were incubated with 25 µM of TAT-Pc 13 for 3 h and imaged with phase microscopy (upper panel) or with increasing concentrations of TAT-Pc 13 for 2 h and cell viability was evaluated using the LIVE&DEAD™ assay. Live cells fluoresce bright green (530 nm), whereas dead cells fluoresce red-orange (645 nm) (lower panel, scale bare: 100 µm); (B) WT (○-○) or CK2β-depleted (●-●) MCF-10A cells were incubated for 4 h with increasing concentrations of TAT-Pc 13 and cell death was evaluated using the LIVE&DEAD™ assay recording fluorescence at 645 nm. Representative data shown from two independent experiments in duplicate; (C) MCF-10A cells were pre-treated in the absence or presence of 20 µM z-VAD for 5 h and then incubated for 4 h with 25 µM random TAT-Pc 13 or TAT-Pc 13 and cell viability was evaluated as in (A) (scale bare: 100 µm); and (D) intracellular events induced by increasing concentrations of TAT-Pc 13. After 12 h of treatment, 786-O cells were lysed and analyzed by Western blot. TEXT PRINTED IN THE PICTURE: (B) TAT-Pc 13: TAT-Pc 13 (μM): 48; TAT-Pc 13 (μM): 60 DOUBTS OF THE COPYIST ABOUT THIS PICTURE: Panel B: 48 and 60 are printed in red at the x axis, where dashed lines drop from the two curves at about 50 on the Cell death (%) axis. No measure name (e.g. IC50) is printed with them. […]
Background: Immunoblotting shows a protein as a band on a membrane.

For experiment [2], the system named is WT MCF-10A cells. The experiment is described as follows: Cell death / viability, LIVE&DEAD assay, WT cells. The format is cell-based. As to conditions: MCF-10A; 20 µM z-VAD or 30 µM Necrostatin-1 for 5 h, then 25 µM TAT-Pc 13 for 4 h. The method, then: Figure 8 Cellular effects of TAT-Pc 13. (A) MCF-10A cells were incubated with 25 µM of TAT-Pc 13 for 3 h and imaged with phase microscopy (upper panel) or with increasing concentrations of TAT-Pc 13 for 2 h and cell viability was evaluated using the LIVE&DEAD™ assay. Live cells fluoresce bright green (530 nm), whereas dead cells fluoresce red-orange (645 nm) (lower panel, scale bare: 100 µm); (B) WT (○-○) or CK2β-depleted (●-●) MCF-10A cells were incubated for 4 h with increasing concentrations of TAT-Pc 13 and cell death was evaluated using the LIVE&DEAD™ assay recording fluorescence at 645 nm. Representative data shown from two independent experiments in duplicate; (C) MCF-10A cells were pre-treated in the absence or presence of 20 µM z-VAD for 5 h and then incubated for 4 h with 25 µM random TAT-Pc 13 or TAT-Pc 13 and cell viability was evaluated as in (A) (scale bare: 100 µm); and (D) intracellular events induced by increasing concentrations of TAT-Pc 13. After 12 h of treatment, 786-O cells were lysed and analyzed by Western blot. TEXT PRINTED IN THE PICTURE: (B) TAT-Pc 13: TAT-Pc 13 (μM): 48; TAT-Pc 13 (μM): 60 DOUBTS OF THE COPYIST ABOUT THIS PICTURE: Panel B: 48 and 60 are printed in red at the x axis, where dashed lines drop from the two curves at about 50 on the Cell death (%) axis. No measure name (e.g. IC50) is printed with them.
Cells were seeded in 96-well microtiter plates at a concentration of 1 × 10^5 cells/mL and were allowed to attach for 24 h at 37 °C in 5% CO2. Cells were then exposed to different concentrations of TAT-Pc 13 for the indicated time. Cell viability was evaluated using the fluorescence-based LIVE&DEAD™ assay (Molecular Probes, Thermo Fisher Scientific, Courtaboeuf, France) according to the manufacturer. Images were taken with an Apotome-equipped Zeiss Axioimager microscope (Zeiss, Oberkochen, German) recording the fluorescence at 530 nm (Live cells) and 645 nm (dead cells) respectively using a FluoStar Optima plate reader (BMG LabTech, Ortenberg, Germany).

In experiment [3] the target is T1, CK2 holoenzyme (Homo sapiens, UniProt P68400).
T1 construct: made in house
The experiment is described as follows: CK2 kinase assay with CK2β-dependent eIF2β-derived peptide substrate. As to conditions: result in words. Type of experiment: biochemical. The text has this:
In a previous study, we used the X-ray structure of CK2β in the holoenzyme complex as a template for the design of a conformationally constrained 13-mer peptide (Pc 13) derived from the CK2β C-terminal domain and centred around the Tyr188 and Phe190 hotspots. Pc 13 is an eight-residue peptide (Arg186–His193) that contains a cluster of hydrophobic residues (Leu187, Tyr188 and Ile192) and three additional glycine residues, cyclized via two cysteine residues to ‘staple’ its conformation and to mimic the binding face of CK2β with CK2α [15]. […]
Figure 2 CK2β-derived cyclic peptides inhibit CK2 activity in vitro. […] Phosphorylated proteins were separated by SDS/PAGE (Sodium dodecylsulfate/ Polyacrylamide gel electrophoresis) and analyzed by autoradiography. […]
Figure 4 Inhibitory activity of a TAT-Pc analogue in vitro. […] CK2 activity was then determined with CK2β-dependent or independent peptide substrates; (B) [^35S]-labeled CK2α was incubated with biotinylated MBP-CK2β immobilized on streptavidin coated plates (preformed complex) in the absence (1) or presence (2) of TAT-Pc 13. […] After washing, the amount of [^35S]-labeled CK2α remaining in the complex was determined by radioactivity counting. […]

The target of experiment [4] is T2, CK2 holoenzyme (CK2α + CK2β) (Homo sapiens, UniProt P68400).
T2 construct: made in house
As to the kind of experiment: CK2-mediated phosphorylation of GST-Olig2 and of CK2β (autoradiography). Type of experiment: biochemical. The following applies: 25 µM peptide. The method, then: Figure 2 CK2β-derived cyclic peptides inhibit CK2 activity in vitro. (A) a series of cyclized CK2β-derived peptide analogues varying in length from eight to 11 amino acids were tested for their effect on the phosphorylation of eIF2β-derived peptide substrate whose phosphorylation relies on the holoenzyme formation. Representative data shown from two independent experiments; (B) structure of Pc 11 (CC); (C) antagonist effect of Pc 11 (CC) on CK2-mediated phosphorylation of the CK2β-dependent substrate Olig2. CK2α was incubated alone or with CK2β in the absence or presence of 25 µM random Pc 11 (CC) or Pc 11 (CC) for 15 min at 4 °C, followed by the addition of GST (Gluthatione S-Transferase)-Olig2 (5 μg) and 25 μM [γ-^32P]ATP/MgCl2 for 5 min at room temperature. Phosphorylated proteins were separated by SDS/PAGE (Sodium dodecylsulfate/ Polyacrylamide gel electrophoresis) and analyzed by autoradiography. The gel was stained with coomassie blue to visualize GST-Olig2. TEXT PRINTED IN THE PICTURE: (A) no label printed: IC50 = 1-3 μM DOUBTS OF THE COPYIST ABOUT THIS PICTURE: Panel A: "IC50 = 1-3 μM" is printed once inside the plot, near the falling curves, and is not tied to any one peptide.

T2 sequence (P68400 whole entry): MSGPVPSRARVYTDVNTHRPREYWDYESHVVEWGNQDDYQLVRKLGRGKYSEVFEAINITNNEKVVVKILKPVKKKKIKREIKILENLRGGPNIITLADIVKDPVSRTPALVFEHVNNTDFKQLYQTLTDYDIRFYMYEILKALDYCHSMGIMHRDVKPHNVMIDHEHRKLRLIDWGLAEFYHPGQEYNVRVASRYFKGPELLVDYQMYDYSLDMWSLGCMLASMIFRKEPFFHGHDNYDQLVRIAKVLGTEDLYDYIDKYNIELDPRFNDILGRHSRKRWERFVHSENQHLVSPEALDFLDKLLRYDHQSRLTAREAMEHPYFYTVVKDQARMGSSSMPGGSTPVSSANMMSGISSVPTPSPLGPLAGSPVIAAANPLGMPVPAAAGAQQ
T1 sequence (P68400 whole entry): as above

`O=C(O)c1ccc2c(c1)nc(Nc1cccc(Cl)c1)c1ccncc12` [CX-4945, 5-(3-chlorophenylamino)benzo[c][2,6]naphthyridine-8-carboxylic acid, reference compound]: in experiment [1], the “phosphorylation of p21” value is listed as “strongly inhibited”.

Take `CN1C(=O)C(Cc2c[nH]c3ccccc23)NC1=S` (stereo not drawn) [Necrostatin-1, reference compound]: in experiment [2], the “effect of inhibitor pre-treatment on TAT-Pc 13-induced cell death” value is on record as “prevented”.

Regarding `CC(C)C[C@@H]1NC(=O)[C@H](CCCNC(=N)N)NC(=O)[C@@H](N)CSSC[C@@H](C(=O)O)NC(=O)[C@H](CCCCN)NC(=O)[C@H](Cc2ccccc2)NC(=O)CNC(=O)[C@H](Cc2ccc(O)cc2)NC1=O` [Pc 8 (CC)] (H-CRLYGFKC-OH; disulfide 1-8), the “effect on phosphorylation of eIF2β peptide substrate” value in experiment [3] was “inactive”.

With `CC[C@H](C)[C@@H]1NC(=O)[C@H](CCCCN)NC(=O)[C@H](Cc2ccccc2)NC(=O)CNC(=O)[C@H](Cc2ccc(O)cc2)NC(=O)[C@H](CC(C)C)NC(=O)[C@H](CCCNC(=N)N)NC(=O)[C@@H](N)CSSC[C@@H](C(=O)O)NC(=O)CNC(=O)[C@H](Cc2c[nH]cn2)NC1=O` [Pc 11 (CC)] (H-CRLYGFKIHGC-OH; disulfide 1-11), the “phosphorylation of CK2β in the holoenzyme” value in experiment [4] is “significantly affected”. Also, in experiment [4] (15 min at 4 °C, then GST-Olig2 and 25 μM ATP for 5 min at room temperature), the Olig-2 phosphorylation result is “strong decrease”.

Turning to `COC(=O)C[C@H](NC(=O)[C@H](C)NC(=O)[C@@H](NC(=O)OCc1ccccc1)C(C)C)C(=O)CF` [z-VAD-FMK, reference compound] (Cbz-Val-Ala-Asp(OMe)-CH2F), the “effect of inhibitor pre-treatment on TAT-Pc 13-induced cell death” value in experiment [2] is reported as “insensitive”.
